Source: ChEMBL document CHEMBL1138978, “Studies toward the discovery of the next generation of antidepressants. Part 5: 3,4-Dihydro-2H-benzo[1,4]oxazine derivatives with dual 5-HT1A receptor and serotonin transporter affinity” (Bioorg Med Chem Lett, 2006)

Tests used:
[1] = target: T1, 5-hydroxytryptamine receptor 1A (Homo sapiens, UniProt P08908); assay: Displacement of [3H]8-OH-DPAT from 5HT1A receptor expressed in CHO cells; type: cell-based
T1 sequence (P08908 whole entry): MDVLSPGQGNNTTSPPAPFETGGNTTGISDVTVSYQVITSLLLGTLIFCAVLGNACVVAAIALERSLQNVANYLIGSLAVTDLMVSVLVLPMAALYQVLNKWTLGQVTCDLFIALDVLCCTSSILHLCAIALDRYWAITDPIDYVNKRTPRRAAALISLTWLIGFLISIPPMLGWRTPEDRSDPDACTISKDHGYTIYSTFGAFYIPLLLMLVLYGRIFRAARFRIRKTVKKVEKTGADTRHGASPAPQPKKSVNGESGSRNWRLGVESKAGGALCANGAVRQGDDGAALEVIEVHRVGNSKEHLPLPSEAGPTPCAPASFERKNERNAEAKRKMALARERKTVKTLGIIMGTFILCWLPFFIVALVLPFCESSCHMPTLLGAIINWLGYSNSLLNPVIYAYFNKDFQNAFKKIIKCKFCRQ

[2] = target: T1, 5-hydroxytryptamine receptor 1A; assay: Intrinsic activity assessed by stimulation of [35S]GTP-gamma-S binding in CHO cells expressing 5HT1A receptor; type: functional, cell-based
[3] = target: T2, Adrenergic receptor alpha-1 (Rattus norvegicus, UniProt P15823+P23944+P43140); assay: Displacement of [3H]prazosin from adrenergic alpha-1 receptor in rat cortical membrane; type: cell membranes
T2 sequence (P15823 whole entry): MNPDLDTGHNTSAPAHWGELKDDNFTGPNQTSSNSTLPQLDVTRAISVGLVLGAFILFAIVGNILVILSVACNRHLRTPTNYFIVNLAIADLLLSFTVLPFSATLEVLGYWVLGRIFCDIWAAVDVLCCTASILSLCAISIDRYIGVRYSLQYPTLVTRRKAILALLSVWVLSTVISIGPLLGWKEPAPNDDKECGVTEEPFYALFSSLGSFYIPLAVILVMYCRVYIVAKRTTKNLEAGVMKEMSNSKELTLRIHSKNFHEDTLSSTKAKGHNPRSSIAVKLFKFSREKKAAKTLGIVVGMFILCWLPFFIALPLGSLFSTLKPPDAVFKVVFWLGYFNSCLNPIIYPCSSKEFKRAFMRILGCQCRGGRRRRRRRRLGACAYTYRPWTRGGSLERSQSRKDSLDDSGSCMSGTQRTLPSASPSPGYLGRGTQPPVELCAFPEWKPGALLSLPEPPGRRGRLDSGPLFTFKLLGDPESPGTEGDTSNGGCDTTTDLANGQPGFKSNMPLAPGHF
T2 sequence (P23944 whole entry): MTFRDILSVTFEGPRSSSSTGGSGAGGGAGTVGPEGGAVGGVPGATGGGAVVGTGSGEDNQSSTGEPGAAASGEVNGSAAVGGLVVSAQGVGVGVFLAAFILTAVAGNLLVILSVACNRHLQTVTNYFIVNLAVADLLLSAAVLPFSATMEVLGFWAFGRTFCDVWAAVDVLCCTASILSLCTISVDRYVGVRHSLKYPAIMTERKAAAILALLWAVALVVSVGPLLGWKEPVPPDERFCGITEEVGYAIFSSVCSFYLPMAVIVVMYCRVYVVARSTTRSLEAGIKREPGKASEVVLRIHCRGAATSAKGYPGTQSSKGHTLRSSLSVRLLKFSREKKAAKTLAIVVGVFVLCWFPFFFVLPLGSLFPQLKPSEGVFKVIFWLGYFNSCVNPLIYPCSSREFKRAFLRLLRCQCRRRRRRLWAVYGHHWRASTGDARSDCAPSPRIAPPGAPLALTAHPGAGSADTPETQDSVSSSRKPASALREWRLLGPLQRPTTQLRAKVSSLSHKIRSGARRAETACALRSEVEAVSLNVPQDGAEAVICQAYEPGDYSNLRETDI
T2 sequence (P43140 whole entry): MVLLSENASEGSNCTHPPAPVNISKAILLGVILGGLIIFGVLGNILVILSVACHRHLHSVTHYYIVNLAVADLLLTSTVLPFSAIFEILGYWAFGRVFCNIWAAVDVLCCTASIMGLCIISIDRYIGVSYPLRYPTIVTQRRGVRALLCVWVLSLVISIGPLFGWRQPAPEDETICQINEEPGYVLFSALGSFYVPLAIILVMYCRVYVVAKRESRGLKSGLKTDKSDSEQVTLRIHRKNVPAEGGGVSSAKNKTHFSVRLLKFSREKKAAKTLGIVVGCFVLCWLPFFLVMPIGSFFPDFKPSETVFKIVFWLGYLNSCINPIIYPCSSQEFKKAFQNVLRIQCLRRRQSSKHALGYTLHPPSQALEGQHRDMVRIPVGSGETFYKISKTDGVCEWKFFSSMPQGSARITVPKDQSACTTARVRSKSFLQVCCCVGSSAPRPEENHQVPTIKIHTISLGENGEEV

[4] = target: Sodium-dependent serotonin transporter (Rattus norvegicus, UniProt P31652); assay: Displacement of [3H]paroxetine from rat cortical 5-HT reuptake
Sodium-dependent serotonin transporter, sequence (P31652 whole entry): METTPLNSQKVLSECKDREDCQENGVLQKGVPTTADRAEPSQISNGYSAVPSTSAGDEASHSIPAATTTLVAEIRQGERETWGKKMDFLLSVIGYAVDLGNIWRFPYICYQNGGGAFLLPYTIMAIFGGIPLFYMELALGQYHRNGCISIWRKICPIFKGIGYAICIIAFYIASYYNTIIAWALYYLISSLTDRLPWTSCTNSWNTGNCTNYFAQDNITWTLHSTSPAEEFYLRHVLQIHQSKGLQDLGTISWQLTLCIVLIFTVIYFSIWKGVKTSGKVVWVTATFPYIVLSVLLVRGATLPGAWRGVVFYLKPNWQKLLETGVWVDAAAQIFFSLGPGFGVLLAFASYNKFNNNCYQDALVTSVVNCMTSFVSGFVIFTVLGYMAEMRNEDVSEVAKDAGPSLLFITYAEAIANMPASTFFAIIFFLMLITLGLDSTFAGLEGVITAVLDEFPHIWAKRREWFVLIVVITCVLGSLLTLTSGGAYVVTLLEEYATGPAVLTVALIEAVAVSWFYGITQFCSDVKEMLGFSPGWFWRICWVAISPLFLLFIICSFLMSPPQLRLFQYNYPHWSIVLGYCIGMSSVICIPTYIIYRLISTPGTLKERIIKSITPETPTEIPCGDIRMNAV

[5] = target: T3, 5-hydroxytryptamine receptor 1A (Homo sapiens) (UniProt P08908); assay: Agonist activity assessed by stimulation of [35S]GTPgammaS binding in CHO cells expressing 5HT1A receptor relative to 5HT; type: functional, cell-based
T3 sequence (whole entry): T1 sequence (P08908 whole entry)

[6] = target: Sodium-dependent serotonin transporter (Rattus norvegicus) (UniProt P31652); assay: Inhibition of [3H]paroxetine binding to rat cortical 5-HT reuptake at 100 nM
Sodium-dependent serotonin transporter (Rattus norvegicus), sequence (P31652 whole entry): as above

[7] = target: Adrenergic receptor alpha-1 (Rattus norvegicus) (UniProt P15823+P23944+P43140); assay: Inhibition of [3H]prazosin binding to adrenergic alpha-1 receptor in rat cortical membrane at 100 nM; type: cell membranes

| SMILES | Ki [1] [nM] | EC50 [2] [nM] | Ki [3] [nM] | Ki [4] [nM] | Emax [5] [%] | inhibition [6] [%] | inhibition [7] [%] |
| --- | --- | --- | --- | --- | --- | --- | --- |
| CCCN1CC(CNCCc2c[nH]c3ccccc23)Oc2ccccc21 (centres undefined) | 12.8 | 196 | 481 | 22.7 | 100 | – | – |
| CC(C)CN1CC(CNCCc2c[nH]c3ccc(F)cc23)Oc2ccccc21 (centres undefined) | 8.15 | 329 | – | 51.5 | 88 | – | – |
| Fc1ccc2[nH]cc(CCNCC3CN(Cc4ccccc4)c4ccccc4O3)c2c1 (centres undefined) | 7.25 | – | – | – | – | 23 | – |
| c1ccc(N2CC(CNCCc3c[nH]c4ccccc34)Oc3ccccc32)cc1 (centres undefined) | 30.2 | – | – | – | – | 23 | – |
| Fc1ccc2[nH]cc(CCNCC3CN(c4ccccc4)c4ccccc4O3)c2c1 (centres undefined) | 7.14 | – | – | – | – | 43 | 65 |
| c1ccc2c(c1)NCC(CNCCc1c[nH]c3ccccc13)O2 (centres undefined) | 6.91 | 93.5 | – | 89.8 | 96 | – | 26 |
| COc1cccc2c1OC(CN1CC=C(c3c[nH]c4ccc(F)cc34)CC1)CN2 (centres undefined) | – | 386 | 14.5 | 6.94 | 35 | – | – |
| COc1cccc2c1OC(CN1CC=C(c3c[nH]c4ccc(F)cc34)CC1)CN2C (centres undefined) | – | 190 | 96.5 | 12.6 | 93 | – | – |
| CC(C)N1CC(CNCCCc2c[nH]c3ccccc23)Oc2ccccc21 (centres undefined) | 90.4 | 329 | – | 23.8 | 88 | – | – |
| CN1CC(CNCCc2c[nH]c3ccc(F)cc23)Oc2cc(Cl)ccc21 (centres undefined) | 75.2 | 336 | 607 | 42.6 | 64 | – | – |
| CN1CC(CNCCc2c[nH]c3ccc(F)cc23)Oc2ccccc21 (centres undefined) | 8.46 | 167 | – | 12.4 | 80 | – | 26 |
| Fc1ccc2[nH]cc(CCNCC3CNc4ccccc4O3)c2c1 (centres undefined) | 11 | 155 | 70 | 16 | 100 | – | – |
| CCN1CC(CN2CC=C(c3c[nH]c4ccc(F)cc34)CC2)Oc2c(OC)cccc21 (centres undefined) | – | 418 | 229 | 13.2 | 54 | – | – |
| CC(C)N1CC(CNCCc2c[nH]c3ccc(F)cc23)Oc2ccccc21 (centres undefined) | 2.81 | 191 | – | 21.1 | 90 | – | – |
| CCCN1CC(CN2CC=C(c3c[nH]c4ccc(F)cc34)CC2)Oc2c(OC)cccc21 (centres undefined) | – | 135 | 505.5 | 22.6 | 92 | – | – |
| C1=C(c2c[nH]c3ccccc23)CCN(CC2CNc3ccccc3O2)C1 (centres undefined) | – | 1130 | 16.6 | 8.37 | 62 | – | – |
| CCN1CC(CNCCc2c[nH]c3ccc(F)cc23)Oc2ccccc21 (centres undefined) | 15.3 | 90 | – | 15.3 | 100 | – | – |
| CN1CC(CNCCc2c[nH]c3ccccc23)Oc2ccccc21 (centres undefined) | 5.86 | 33.6 | – | 88.5 | 95 | – | 28 |
| COc1cccc2c1OC(CNCCc1c[nH]c3ccc(F)cc13)CN2 (centres undefined) | 9.31 | 52.2 | 7.6 | 3.13 | 66 | – | – |
| COc1ccc2c(c1)OC(CNCCc1c[nH]c3ccc(F)cc13)CN2 (centres undefined) | 103 | 181 | 44.5 | 11.7 | 56 | – | – |
| c1ccc(N2CC(CNCCCc3c[nH]c4ccccc34)Oc3ccccc32)cc1 (centres undefined) | 75.8 | – | – | – | – | 7 | – |
| c1ccc(CN2CC(CNCCCc3c[nH]c4ccccc34)Oc3ccccc32)cc1 (centres undefined) | 76.1 | 1380 | – | 109 | 64 | – | – |
